Patent publication US20080161309A1, “Novel Compounds” (priority 2004, published 2008)
Structures can show the parent of a compound that is named as a salt.

Assays:
[1] = target: T1, human norepinephrine transporter (hNET) (Homo sapiens, UniProt P23975); assay: hNET receptor binding, [125I]-RTI-55, HEK-293 membranes; details: Cheng-Prusoff, read-out: NET Ki
T1 construct: expressed in transfected cells; host or cells: HEK-293, membranes
Procedure: Cell pastes of HEK-293 cells transfected with a human norepinephrine transporter cDNA were prepared. The cell pastes were resuspended in 400 to 700 ml of Krebs-HEPES assay buffer (25 mM HEPES, 122 mM NaCl, 3 mM KCl, 1.2 mM MgSO4, 1.3 mM CaCl2, and 11 mM glucose, pH 7.4) with a Polytron homogenizer at setting 7 for 30 seconds. Aliquots of membranes (5 mg/ml protein) were stored in liquid nitrogen until used.
The binding assay was set up in Beckman deep-well polypropylene plates with a total volume of 250 μl containing: drug (10^−5M to 10^−12M), cell membranes, and […] [^125I]-RTI-55 (Perkin Elmer, NEX-272; specific activity 2200 Ci/mmol). The reaction was incubated by gentle agitation for 90 minutes at room temperature and was terminated by filtration through Whatman GF/C filter plates using a Brandel 96-well plate harvester. Scintillation fluid (100 μl) was added to each well, and bound [^125I]-RTI-55 was determined using a Wallac Trilux Beta Plate Counter. Test compounds were run in duplicate, and specific binding was defined as the difference between binding in the presence and absence of 10 μM desipramine.
Excel and GraphPad Prism software were used for data calculation and analysis. IC50 values were converted to Ki values using the Cheng-Prusoff equation. The Ki values (nM) for the hNET are reported below in Table 1.

[2] = target: T2, human serotonin transporter (hSERT) (Homo sapiens, UniProt P31645); assay: hSERT receptor binding, [125I]-RTI-55, HEK-293 membranes; details: [125I]-RTI-55, HEK-293 membranes, Cheng-Prusoff; read-out: SERT Ki
T2 construct: expressed in transfected cells; host or cells: HEK-293, membranes
T2 sequence (P31645 whole entry): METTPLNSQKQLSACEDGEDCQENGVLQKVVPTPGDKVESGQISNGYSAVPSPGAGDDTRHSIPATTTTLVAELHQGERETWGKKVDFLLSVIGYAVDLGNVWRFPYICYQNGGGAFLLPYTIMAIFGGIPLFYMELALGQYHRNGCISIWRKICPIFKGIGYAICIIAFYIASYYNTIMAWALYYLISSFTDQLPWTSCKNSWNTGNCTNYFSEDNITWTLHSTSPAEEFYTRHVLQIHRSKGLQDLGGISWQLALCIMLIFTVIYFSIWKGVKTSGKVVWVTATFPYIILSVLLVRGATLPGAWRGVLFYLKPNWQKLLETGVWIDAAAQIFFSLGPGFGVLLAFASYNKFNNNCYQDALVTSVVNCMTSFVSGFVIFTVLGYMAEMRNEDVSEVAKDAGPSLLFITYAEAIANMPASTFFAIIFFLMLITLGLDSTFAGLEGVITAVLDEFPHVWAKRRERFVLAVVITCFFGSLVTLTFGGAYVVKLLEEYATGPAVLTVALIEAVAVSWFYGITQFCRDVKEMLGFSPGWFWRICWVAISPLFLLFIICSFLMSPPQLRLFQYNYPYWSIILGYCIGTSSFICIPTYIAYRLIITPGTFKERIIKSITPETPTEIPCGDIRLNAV
Procedure: Cell pastes of HEK-293 cells transfected with a human serotonin transporter cDNA were prepared. […] Aliquots of membranes (−2.5 mg/ml protein) were stored in liquid nitrogen until used.
The reaction was incubated and gently agitated for 90 minutes at room temperature, and terminated by removal of assay volume. […] Test compounds were run in duplicate, and specific binding was defined as the difference between binding in the presence and absence of 10 μM citalopram. Excel and GraphPad Prism software were used for data calculation and analysis. IC50 values were converted to Ki values using the Cheng-Prusoff equation.

T1 sequence (P23975 whole entry): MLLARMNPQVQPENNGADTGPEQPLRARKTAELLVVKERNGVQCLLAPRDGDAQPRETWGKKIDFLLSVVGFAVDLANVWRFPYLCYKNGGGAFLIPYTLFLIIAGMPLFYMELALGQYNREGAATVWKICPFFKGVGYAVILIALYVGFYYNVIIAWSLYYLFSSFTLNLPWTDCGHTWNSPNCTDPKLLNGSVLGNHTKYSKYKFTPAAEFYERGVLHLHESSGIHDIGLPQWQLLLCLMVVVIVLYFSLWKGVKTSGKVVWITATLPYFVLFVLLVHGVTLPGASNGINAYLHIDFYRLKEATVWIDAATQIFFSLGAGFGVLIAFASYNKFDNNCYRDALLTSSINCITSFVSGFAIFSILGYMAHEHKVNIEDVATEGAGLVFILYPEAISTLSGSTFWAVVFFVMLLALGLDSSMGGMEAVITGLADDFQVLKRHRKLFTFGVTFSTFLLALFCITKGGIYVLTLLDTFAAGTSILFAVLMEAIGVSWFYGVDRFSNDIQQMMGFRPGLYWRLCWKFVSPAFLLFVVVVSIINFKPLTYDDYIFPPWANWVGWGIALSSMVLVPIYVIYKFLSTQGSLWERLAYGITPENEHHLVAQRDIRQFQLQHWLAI

SMILES	Ki [1] [nM]	Ki [2] [nM]
COc1cc(C)ccc1O[C@@H](c1ccc(F)cc1)[C@@H]1CNCCO1 [Example 42, (2S)-2-[(1S)-(2-methoxy-4-methylphenoxy)4-fluorophenyl) methyl] morpholine hydrochloride]	11.4	69.2
COc1cc(C)ccc1O[C@H](c1ccc(F)cc1)[C@H]1CNCCO1 [Example 43, (2R)-2-[(1R)-(2-Methoxy-4-methylphenoxy)4-Fluorophenyl) methyl] morpholine hydrochloride]	1700	4.7
Fc1cccc([C@H](Oc2ccc(Cl)cc2F)[C@@H]2CNCCO2)c1 [Example 44, (2S)-2-[(1S)-(4-Chloro-2-fluorophenoxy)(3-fluorophenyl)methyl] morpholine hydrochloride]	33.3	74.8
Fc1ccc(Cl)c(O[C@@H](c2cccc(Cl)c2)[C@@H]2CNCCO2)c1 [Example 53, (2S)-2-[(1S)-(2-Chloro-5-fluorophenoxy) (3-chlorophenyl)methyl] morpholine hydrochloride]	26.6	344
COc1cc(F)ccc1O[C@@H](c1cccc(C)c1)[C@@H]1CNCCO1 [Example 57, (2S)-2-[(1S)-(4-Fluoro-2-methoxyphenoxy)-m-tolyl-methyl] morpholine hydrochloride]	19.7	544
COc1ccc(O[C@@H](c2cccc(C)c2)[C@@H]2CNCCO2)c(OC)c1 [Example 58, (2S)-2-[(1S)-(2,4-Dimethoxyphenoxy)-m-tolyl-methyl] morpholine hydrochloride]	42.9	474
Cc1cccc([C@H](Oc2cc(F)ccc2Cl)[C@@H]2CNCCO2)c1 [Example 59, (2S)-2-[(1S)-(2-Chloro-5-fluorophenoxy)-m-tolyl-methyl] morpholine hydrochloride]	10.3	524
Fc1cccc([C@H](Oc2c(F)cccc2Cl)[C@@H]2CNCCO2)c1 [Example 60, (2S)-2-[(1S)-(2-Chloro-6-fluorophenoxy) (3-fluorophenyl)methyl] morpholine hydrochloride]	1.91	314
COc1cccc([C@H](Oc2ccc(F)cc2Cl)[C@@H]2CNCCO2)c1 [Example 63, (2S)-2-[(1S)-(2-Chloro-4-fluorophenoxy)-(3-methoxyphenyl)methyl] morpholine hydrochloride]	3.21	124
Fc1cccc([C@H](Oc2ccc(F)cc2F)[C@@H]2CNCCO2)c1 [Example 64, (2S)-2-[(1S)-(2,4-Difluorophenoxy) (3-fluoro-phenyl)methyl] morpholine hydrochloride]	13.8	511
COc1cccc([C@H](Oc2cc(F)ccc2Cl)[C@@H]2CNCCO2)c1 [Example 69, (2S)-2-[(1S)-(2-Chloro-5-fluorophenoxy) (3-methoxyphenyl)methyl] morpholine hydrochloride]	7.92	687
Fc1ccc(O[C@@H](c2ccc(Cl)cc2)[C@@H]2CNCCO2)c(Cl)c1 [Example 72, (2S)-2-[(1S)-(2-Chloro-4-fluorophenoxy) (4-chlorophenyl)methyl] morpholine hydrochloride]	91.6	78.9
COc1cc(Cl)ccc1O[C@@H](c1ccc(Cl)cc1)[C@@H]1CNCCO1 [Example 73, (2S)-2-[(1S)-(4-Chloro-2-methoxyphenoxy) (4-chlorophenyl)methyl] morpholine hydrochloride]	75.7	14
Fc1ccc([C@H](Oc2ccc(F)cc2Cl)[C@@H]2CNCCO2)cc1 [Example 74, (2S)-2-[(1S)-(2-Chloro-4-fluorophenoxy) (4-fluorophenyl)methyl] morpholine hydrochloride]	18.6	138
Clc1cccc(O[C@@H](c2ccccc2)[C@@H]2CNCCO2)c1Cl [Example 81, (2S)-2-[(1S)-(2,3-Dichlorophenoxy)phenylmethyl] morpholine fumarate]	7.1	26.4

Continued by falling Ki [1], values first:

Ki [1] [nM]	Ki [2] [nM]	SMILES
390	35.5	Fc1cccc([C@H](Oc2ccc(C(F)(F)F)cc2)[C@@H]2CNCCO2)c1 [Example 67, (2S)-2-[(1S)-(3-Fluorophenyl) (4-trifluoromethyl phenoxy)methyl] morpholine hydrochloride]
28.6	77.7	COc1cc(F)ccc1O[C@@H](c1ccc(Cl)cc1)[C@@H]1CNCCO1 [Example 71, (2S)-2-[(1S)-(4-Chloro-phenyl) (4-fluoro-2-methoxyphenoxy)methyl] morpholine hydrochloride]
26.6	1040	COc1ccc(C)cc1O[C@@H](c1cccc(F)c1)[C@@H]1CNCCO1 [Example 51, (2S)-2-[(1S)-(3-Fluorophenyl)-(2-methoxy-5-methylphenoxy)methyl] morpholine hydrochloride]
23.7	41.7	COc1cc(Cl)ccc1O[C@@H](c1cccc(C)c1)[C@@H]1CNCCO1 [Example 54, (2S)-2-[(1S)-(4-Chloro-2-methoxyphenoxy)-m-tolyl-methyl] morpholine hydrochloride]
20.4	109	COc1cc(C)ccc1O[C@@H](c1cccc(C)c1)[C@@H]1CNCCO1 [Example 55, (2S)-2-[(1S)-(2-Methoxy-4-methylphenoxy)-m-tolyl-methyl] morpholine hydrochloride]
20.1	38	COc1cccc([C@H](Oc2ccc(Cl)cc2OC)[C@@H]2CNCCO2)c1 [Example 61, (2S)-2-[(1S)-(4-Chloro-2-methoxyphenoxy) (3-methoxyphenyl)methyl] morpholine hydrochloride]
20.1	408	COc1cccc([C@H](Oc2ccc(F)cc2OC)[C@@H]2CNCCO2)c1 [Example 68, (2S)-2-[(1S)-(4-Fluoro-2-methoxyphenoxy) (3-methoxyphenyl)methyl] morpholine hydrochloride]
19.9	1040	CCCc1ccccc1O[C@@H](c1cccc(F)c1)[C@@H]1CNCCO1 [Example 66, (2S)-2-[(1S)-(3-Fluorophenyl) (2-propylphenoxy)methyl] morpholine hydrochloride]
15.7	511	Fc1cccc([C@H](Oc2c(F)cc(F)cc2F)[C@@H]2CNCCO2)c1 [Example 65, (2S)-2-[(1S)-(3-Fluorophenyl) (2,4,6-trifluorophenoxy)methyl] morpholine hydrochloride]
11.9	12.1	Cc1c(Cl)cccc1O[C@@H](c1ccccc1)[C@@H]1CNCCO1 [Example 82, (2S)-2-[(1S)-(3-Chloro-2-methylphenoxy)phenylmethyl] morpholine fumarate]
10.9	385	Fc1c(F)c(F)c(O[C@@H](c2ccccc2)[C@@H]2CNCCO2)c(F)c1F [Example 85, (2S)-2-[(1S)-(Pentafluorophenyloxy) (phenyl)methyl] morpholine fumarate]
10.1	437	COc1ccc(Cl)cc1O[C@@H](c1ccccc1)[C@@H]1CNCCO1 [Example 84, (2S)-2-[(1S)-(5-Chloro-2-methoxyphenoxy)phenylmethyl]morpholine fumarate]
8.9	222	Fc1cc(F)c(Cl)c(O[C@@H](c2ccccc2)[C@@H]2CNCCO2)c1 [Example 83, (2S)-2-[(1S)-(2-Chloro-3,5-difluorophenoxy)phenylmethyl]morpholine fumarate]
8	1070	COc1cccc(F)c1O[C@@H](c1cccc(F)c1)[C@@H]1CNCCO1 [Example 50, (2S)-2-[(1S)-(2-Fluoro-6-methoxyphenoxy)(3-fluorophenyl)methyl] morpholine hydrochloride]
6.9	967	Fc1cccc([C@H](Oc2c(F)cccc2F)[C@@H]2CNCCO2)c1 [Example 47, (2S)-2-[(1S)-(2,6-Difluorophenoxy)-(3-fluorophenyl)methyl] morpholine hydrochloride]
6.8	194	Cc1ccccc1O[C@@H](c1cccc(F)c1)[C@@H]1CNCCO1 [Example 49, (2S)-2-[(1S)-(3-Fluorophenyl)-o-tolyloxy-methyl] morpholine hydrochloride]
4.3	158	COc1cc(C)ccc1O[C@@H](c1ccccc1)[C@@H]1CNCCO1 [Example 40, (2S)-2-[(1S)-(2-Methoxy-4-methylphenoxy)phenylmethyl] morpholine hydrochloride]
3.77	142	Fc1cccc([C@H](Oc2cccc(F)c2F)[C@@H]2CNCCO2)c1 [Example 39, (2S)-2-[(1S)-(2,3-Difluorophenoxy)(3-fluorophenyl)methyl] morpholine hydrochloride]
